Source: the METLIN SMRT retention time set (Domingo-Almenara et al. 2019)

Experiment: gradient 5% acetonitrile 3 min, to 50% in 2 min, to 85% in 15 min, held 3 min, 100 µL/min
Settings: column: Zorbax Extend-C18 2.1 x 50 mm; eluents: water / acetonitrile, 0.1% formic acid
In short: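 The system's dead and dwell volumes were 40 μL and 900 μL, with a Zorbax Extend-C18 column (2.1 × 50 mm, 1.8 μm) run at 100 μL/min in water and acetonitrile containing 0.1% formic acid each. Pure standards were analyzed in mixtures of ~100 molecules by HPLC–quadrupole time-of-flight mass spectrometry in positive and negative ionization mode. Retention time was assigned from computationally picked, manually inspected adduct peaks.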

| Compound | RP-LC retention time [s] |
| --- | --- |
| Cc1ccc(CNC(=O)c2cn(C)nc2S(=O)(=O)N2CCSCC2)cc1 | 902 |
| O=C(c1ccccc1Cl)N1CCN(C(=O)c2nnn3c2COC(c2ccccc2)C3)CC1 (stereo unspecified) | 858 |
| CCOc1ccc(NC(=O)Cn2c(N3CCOCC3)nc(C)cc2=O)cc1 | 654 |
| Cc1ccsc1C(=O)Nc1cnc(-c2ccc(Cl)cc2)nc1 | 1110 |
| Cc1ccc(N2CC(c3noc(-c4ccncc4)n3)CC2=O)cc1 (stereo unspecified) | 798 |
| Fc1ccc(Nc2c(-c3ccccc3)nc3cnccn23)cc1 | 844 |
| CCN(CC)C(=O)c1ccc(-c2nc3cc(NS(=O)(=O)c4ccc(F)c(F)c4)ccc3n2C)cc1 | 724 |
| CC1CCCN(CC(=O)Nc2nc(-c3ccccc3)cs2)C1 (stereo unspecified) | 655 |
| Cc1cccc(CN2CCC(CNC(=O)C3CCCN(c4cc(=O)n(C)c(=O)n4C)C3)CC2)c1 (stereo unspecified) | 599 |
| CCCN1C(=O)COc2ccc(-c3noc(COc4ccccc4)n3)cc21 | 1100 |
| OC(COc1ccc(F)cc1)CN1CCN(c2cccc(Cl)c2)CC1 (stereo unspecified) | 734 |
| CCC(CC)C(=O)Nc1cccc(C(=O)Nc2nc(-c3ccccc3)cs2)c1 | 1070 |
| O=S(=O)(c1ccc(-n2cnnn2)cc1)N1CCN(c2ccccn2)CC1 | 596 |
| CCn1c(=O)c2ccccc2n(Cc2nc(-c3ccccc3OC)no2)c1=O | 909 |
| CC(C)NC(=O)c1ccc(OCC2CCCN(C(=O)c3ccc(F)cc3Cl)C2)cc1 (stereo unspecified) | 887 |
| Cc1nc(C(=O)Nc2ccc(F)cc2)c(C)o1 | 848 |
| CCN(CC)C(=O)Cn1ccc2ccc(-c3nnc(C)o3)cc21 | 718 |
| Cc1ccc(NC(=O)Nc2ccc3nnc(C)n3c2)c(C)c1 | 695 |
| CC1=C(c2cccc(Cl)c2)S(=O)(=O)N=C1N1CCCN(C(=O)c2ccccn2)CC1 | 760 |
| COCCC1(NS(C)(=O)=O)CCN(C(=O)C2(c3ccc(OC)cc3)CC2)CC1 | 710 |
| Cc1ccnc(NC(=O)C2CCN(S(=O)(=O)c3cc(C(=O)N4CCCC4)n(C)c3)CC2)c1 | 674 |
| CN(C(=O)c1c2c(cn(-c3ccccc3)c1=O)C(=O)CC(C)(C)C2)c1ccc(F)cc1 | 835 |
| COc1ccccc1CN[C@H]1CCCN[C@H]1c1ccccc1 | 578 |

| Compound | RP-LC retention time [s] |
| --- | --- |
| CCOC(=O)c1cc(S(=O)(=O)N2CCCC2C(=O)Nc2cccc(F)c2)cn1C (stereo unspecified) | 938 |
| Cc1ccc(CNC(=O)Cn2nc3c4cc(-c5cc(C)ccc5C)nn4ccn3c2=O)cc1 | 985 |
| Cc1csc(C(=O)Nc2ccc(CC(=O)N3CCC(O)CC3)cc2)c1 | 635 |
| Cc1ccn2cc(C(=O)NC3CCN(Cc4ccccc4)CC3)nc2c1 | 804 |
| CCOc1cccc(-c2noc(Cn3c(=O)n(-c4ccc(Cl)cc4)c(=O)c4sccc43)n2)c1 | 1130 |
| O=C(c1ccccc1Cl)N1CC2CC(C1)c1cccc(=O)n1C2 (stereo unspecified) | 596 |
| CCC1(O)CCOC2(CCN(C(=O)CC3CC3)CC2)C1 (stereo unspecified) | 627 |
| Cc1oc(-c2ccc(NC(=O)CC(C)(C)C)cc2)nc1Cn1cccn1 | 883 |
| Cc1ccc(C)c(S(=O)(=O)N2CC(c3noc(C)n3)C3(CCOCC3)C2)c1 (stereo unspecified) | 929 |
| CC1(C(=O)NCc2ccc(F)cc2)CN(S(C)(=O)=O)CC(=O)N1c1cccc(Cl)c1 (stereo unspecified) | 805 |
| CN(Cc1ccccc1)C(=O)C1CCN(S(=O)(=O)c2ccc3c(c2)sc(=O)n3C)CC1 | 852 |
| CCn1ncc2ccc(C(=O)NC(C)C)cc21 | 702 |
| COc1ccc(-c2cc(=O)n3c4ccccc4n(CC(=O)Nc4ccc5c(c4)OCO5)c3n2)cc1 | 720 |
| COc1ccc(C2C(C(=O)NC(C)C)c3cc(OC)c(OC)cc3C(=O)N2C)cc1OC (stereo unspecified) | 662 |
| Cc1ccc(C(=O)N2CCCC(COc3ccc(C(=O)N4CCOCC4)cc3)C2)cc1 (stereo unspecified) | 793 |
| Cn1c(CC2CCN(C(=O)COc3cccc(Cl)c3)C2)nc2cccnc21 (stereo unspecified) | 608 |
| OCC1CN(c2ncccn2)CC12CCN(Cc1ccc3[nH]ccc3c1)CC2 (stereo unspecified) | 577 |
| C=CCN1C(=O)COc2ccc(-c3nc(NC(=O)c4cc(OC)cc(OC)c4)sc3C)cc21 | 1090 |
| CC(C)(C)C(=O)N1CCOC(c2ccccc2)C1 (stereo unspecified) | 831 |
| Cc1nnc2ccc(-c3noc(Cc4cccc(F)c4)n3)cn12 | 787 |
| O=C(NCc1ccccc1)c1ccc2ncnc(N3CCCC3)c2c1 | 613 |
| CCOC(=O)C1CCN(c2ncc(S(=O)(=O)c3ccc(CC)cc3)c(N)n2)CC1 | 1030 |
| COc1ccc(-c2nc3nccc(-c4ccsc4)n3n2)c(OC)c1 | 832 |

| Compound | RP-LC retention time [s] |
| --- | --- |
| Cc1ccc(CC(=O)Nc2ccc(-c3nc(Cn4nc(C)cc4C)c(C)o3)cc2)cc1 | 559 |
| O=C1CN(C(=O)Cc2ccccc2Cl)C2(CCCC2)CN1 | 727 |
| COc1cc(Cn2c(N)c(C#N)c3nc4ccccc4nc32)cc(OC)c1OC | 720 |
| Cc1ccc(CC(=O)N2CCc3nc(-c4ccc(Cl)cc4)ncc3C2)cc1 | 1150 |
| O=C(c1csc(-c2cccnc2)n1)N1CCN(c2ncccn2)CC1 | 648 |
| CCN(CC)c1ncc2c(n1)CCC(C(=O)NCc1ccc(F)cc1Cl)C2 (stereo unspecified) | 731 |
| Cn1c(=O)n(C)c2cc(CNCCC3=CCCCC3)ccc21 | 600 |
| Cc1ccc2c(c1)OCC(=O)N2CC(=O)NC1CC1 | 701 |
| CCOC(=O)N1CCN(c2nc(F)c3c(c2F)S(=O)(=O)CCN3C2CCCCC2)CC1 | 1170 |
| Clc1ccc(-c2ccc(CNc3nn[nH]n3)o2)c(Cl)c1 | 845 |
| O=[N+]([O-])c1ccccc1OCC(O)CN1CCN(c2ccccc2F)CC1 (stereo unspecified) | 577 |
| Cc1ccc2c(c1)Oc1ccccc1N=C2 | 993 |
| O=C(CN1C(=O)c2cccnc2Oc2ccccc21)NCCc1c[nH]c2ccccc12 | 766 |
| CC1CCCN(C(=O)C2c3ccccc3CC(=O)N2C)C1 (stereo unspecified) | 748 |
| O=C1CCC2(C(=O)NCCN3CCOCC3)CCCC=C2N1c1ccccc1 (stereo unspecified) | 553 |
| O=C(CCC(=O)N1CC2CCCN2c2ccccc21)NCCc1cccs1 (stereo unspecified) | 906 |
| CCCCS(=O)(=O)N1CCC(F)(c2nc(-c3ccccc3)no2)CC1 | 1080 |
| C[C@@H](NC(=O)c1ccc(Cl)cc1)C(=O)NCc1cscn1 | 673 |
| COCc1cc2nn(CC(=O)Nc3cc(F)ccc3C)c(=O)n2c(-c2ccccc2)n1 | 853 |
| O=C(NCc1ccccc1F)C1CCCN(c2nccnc2Sc2ccccc2)C1 (stereo unspecified) | 1050 |
| CCCCN(C)C(=O)c1ccc(-c2nnc3ccc(NC(=O)CC)cn23)cc1 | 740 |
| COc1ccc(CNC(=O)c2nc(N3CCOCC3)c3ccccc3n2)cc1 | 662 |
| Cc1ccc2cc(CCC(=O)NCc3ccc(N4CCOCC4)cc3)c(=O)[nH]c2c1 | 655 |

| Compound | RP-LC retention time [s] |
| --- | --- |
| O=C(NCCCN1CCCCCC1)C1CCCN(c2nc3cccnc3s2)C1 (stereo unspecified) | 595 |
| CS(=O)(=O)N1CCC(C(=O)N2CCC3(CC2)OCCS3)CC1 | 625 |
| CCN(CC)S(=O)(=O)c1cc(-c2nnc(-c3ccc(C)cc3)o2)ccc1Cl | 1190 |
| CN(C)CCCNC(=O)C1CCN(c2nc3ccc(-c4ccsc4)nc3s2)CC1 | 644 |
| Cn1cc(-c2nc(C(=O)NCc3ccc(C(F)(F)F)cc3)cs2)c2cccnc21 | 1040 |
| CCOc1ccc(C2Cn3nnc(-c4nc(C5CCCCC5)no4)c3CO2)cc1 (stereo unspecified) | 1290 |
| Cc1ccccc1CNC(=O)C1(C)CCCN(C(=O)Nc2ccccc2)C1 (stereo unspecified) | 898 |
| COc1cccc(-c2nc3cnccn3c2NCCC(=O)NC2CCCC2)c1 | 675 |
| O=C(CCn1cnc2cc(-c3noc(-c4cccc(F)c4)n3)ccc21)N1CCCC1 | 765 |
| CC(=O)c1cccc(NC(=O)N2CCc3nc[nH]c3C2)c1 | 556 |
| O=S(=O)(c1ccc(Cl)cc1)c1ccc(N2CCN(c3ncccn3)CC2)nn1 | 884 |
| Cc1ccc(N2C(=O)CN(S(C)(=O)=O)CC2(C)C(=O)NC2CCCCCCC2)cc1Cl (stereo unspecified) | 980 |
| COc1ccc(-c2csc(NC(=O)Cn3c(=O)oc4ccccc43)n2)cc1OC | 828 |
| O=C(Cc1nnc2cc(-c3nc(C4CC4)no3)ccn12)NC1CCCCC1 | 737 |
| CCc1nc2cccnc2n1C1CCN(C(=O)CCCc2ccccc2)C1 (stereo unspecified) | 647 |
| CCc1ccc(C(O)CN2CCN(c3ncccn3)CC2)cc1 (stereo unspecified) | 621 |
| CCc1ccccc1NC(=O)Cn1c(NCCCc2ccccc2)nc(C)cc1=O | 857 |
| CCc1cc(=O)n(CC(=O)NCc2ccc(F)cc2F)c(N2CCOCC2)n1 | 720 |
| Cc1ccc(-n2cc(C(=O)N3CCC(C(N)=O)CC3)nn2)cc1 | 641 |
| COCc1c(C(=O)O)nnn1-c1ccc2c(c1)CCC2 | 777 |
| Cc1cccc(NC(=O)Nc2c(-c3ccc(F)cc3)nc3ccccn23)c1C | 697 |
| O=S(=O)(Cc1ccc(Cl)cc1)N1CCc2nc(-c3ccc(Cl)cc3)ncc2C1 | 1210 |
